Activity calls are given as the source filed them. The rule behind the calls is not given here.
Assays:
[1] = tested on: K562; assay: Growth inhibition of human K562 cells incubated for 2 days by CCK8 assay; type: functional, cell-based; settings: K562, 48 h
[2] = molecular target: T1, Bcr/Abl fusion protein (Homo sapiens) (UniProt P00519+P11274); assay: Inhibition of BCR-ABL phosphorylation in human KU812 cells at 1 to 30 nM by Western blot analysis; type: cell-based
[3] = molecular target: T1, Bcr/Abl fusion protein (Homo sapiens); assay: Inhibition of BCR-ABL in human KU812 cells assessed as reduction in STAT5 phosphorylation at 1 to 30 nM by Western blot analysis; type: cell-based
[4] = tested on: U-937; assay: Growth inhibition of human U937 cells incubated for 2 days by CCK8 assay; type: functional, cell-based
[5] = molecular target: T2, von Hippel-Lindau disease tumor suppressor/Tyrosine-protein kinase ABL1/Breakpoint cluster region protein (Homo sapiens, UniProt P00519+P11274+P40337); assay: Protac activity against VHL/BCR-ABL in human K562 cells assessed as induction of BCR-ABL degradation pre-treated with 4 uM VHL1 for 2 hrs followed by compound addition at 100 nM and further incubated for 8 hrs by Western blot analysis; type: cell-based
T2 sequence (P00519 whole entry, looked up): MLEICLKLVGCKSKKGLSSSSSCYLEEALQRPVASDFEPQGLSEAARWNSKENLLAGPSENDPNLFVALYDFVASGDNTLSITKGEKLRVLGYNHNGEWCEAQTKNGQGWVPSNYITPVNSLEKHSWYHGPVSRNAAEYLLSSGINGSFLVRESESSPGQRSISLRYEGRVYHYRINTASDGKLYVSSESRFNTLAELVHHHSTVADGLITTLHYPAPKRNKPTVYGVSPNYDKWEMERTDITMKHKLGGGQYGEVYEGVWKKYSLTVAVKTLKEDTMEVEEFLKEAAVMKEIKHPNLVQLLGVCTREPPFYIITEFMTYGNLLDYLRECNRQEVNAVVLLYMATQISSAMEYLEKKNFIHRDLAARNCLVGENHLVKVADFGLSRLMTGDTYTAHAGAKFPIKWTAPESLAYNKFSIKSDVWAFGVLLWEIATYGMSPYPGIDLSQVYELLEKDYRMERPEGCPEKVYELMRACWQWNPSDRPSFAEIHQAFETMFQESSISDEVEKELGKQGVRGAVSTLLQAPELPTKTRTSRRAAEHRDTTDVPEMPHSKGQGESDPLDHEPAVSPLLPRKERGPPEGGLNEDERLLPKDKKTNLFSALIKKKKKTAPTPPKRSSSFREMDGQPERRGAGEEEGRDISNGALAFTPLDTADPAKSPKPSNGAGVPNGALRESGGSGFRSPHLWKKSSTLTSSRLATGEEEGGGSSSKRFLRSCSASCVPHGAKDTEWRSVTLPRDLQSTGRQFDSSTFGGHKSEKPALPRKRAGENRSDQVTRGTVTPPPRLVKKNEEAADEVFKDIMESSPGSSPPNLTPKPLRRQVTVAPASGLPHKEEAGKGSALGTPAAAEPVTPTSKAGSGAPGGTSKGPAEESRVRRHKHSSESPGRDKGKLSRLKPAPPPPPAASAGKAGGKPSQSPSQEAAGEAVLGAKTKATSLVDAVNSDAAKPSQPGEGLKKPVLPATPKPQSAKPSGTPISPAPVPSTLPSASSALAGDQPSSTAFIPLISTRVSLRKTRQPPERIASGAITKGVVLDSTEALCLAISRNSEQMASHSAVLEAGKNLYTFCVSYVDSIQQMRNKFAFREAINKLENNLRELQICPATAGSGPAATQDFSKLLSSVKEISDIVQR
T2 sequence (P11274 whole entry, looked up): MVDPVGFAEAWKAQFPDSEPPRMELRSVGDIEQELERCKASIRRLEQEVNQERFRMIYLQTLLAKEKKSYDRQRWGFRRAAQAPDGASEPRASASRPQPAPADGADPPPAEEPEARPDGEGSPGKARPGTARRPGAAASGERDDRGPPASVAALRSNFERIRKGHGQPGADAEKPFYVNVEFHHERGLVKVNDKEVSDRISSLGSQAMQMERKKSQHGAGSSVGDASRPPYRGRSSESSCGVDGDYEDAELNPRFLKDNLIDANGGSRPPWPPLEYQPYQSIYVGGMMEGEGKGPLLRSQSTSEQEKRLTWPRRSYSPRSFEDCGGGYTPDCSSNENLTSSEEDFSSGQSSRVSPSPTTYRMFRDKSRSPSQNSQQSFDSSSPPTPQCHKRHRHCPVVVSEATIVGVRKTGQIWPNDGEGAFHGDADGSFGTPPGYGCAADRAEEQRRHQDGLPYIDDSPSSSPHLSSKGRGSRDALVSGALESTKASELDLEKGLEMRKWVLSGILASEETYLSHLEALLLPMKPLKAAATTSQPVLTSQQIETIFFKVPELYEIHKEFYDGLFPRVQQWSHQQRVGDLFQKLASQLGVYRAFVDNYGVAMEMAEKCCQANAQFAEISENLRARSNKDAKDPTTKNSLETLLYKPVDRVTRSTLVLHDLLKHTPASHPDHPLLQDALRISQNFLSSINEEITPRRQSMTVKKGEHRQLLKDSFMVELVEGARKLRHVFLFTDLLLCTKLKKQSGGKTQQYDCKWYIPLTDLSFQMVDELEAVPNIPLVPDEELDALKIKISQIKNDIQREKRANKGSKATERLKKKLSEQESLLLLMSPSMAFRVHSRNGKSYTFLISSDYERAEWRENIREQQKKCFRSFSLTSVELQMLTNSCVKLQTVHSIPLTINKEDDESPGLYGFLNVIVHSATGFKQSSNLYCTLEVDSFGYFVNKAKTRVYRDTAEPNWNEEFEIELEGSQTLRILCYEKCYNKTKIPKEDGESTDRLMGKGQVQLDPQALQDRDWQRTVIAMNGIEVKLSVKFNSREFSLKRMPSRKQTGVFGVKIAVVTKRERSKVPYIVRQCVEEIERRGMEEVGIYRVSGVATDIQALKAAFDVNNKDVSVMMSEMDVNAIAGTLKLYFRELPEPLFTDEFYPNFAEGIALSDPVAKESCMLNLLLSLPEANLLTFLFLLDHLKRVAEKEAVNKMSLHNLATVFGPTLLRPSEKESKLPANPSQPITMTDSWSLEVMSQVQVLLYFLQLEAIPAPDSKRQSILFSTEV
T2 sequence (P40337 whole entry, looked up): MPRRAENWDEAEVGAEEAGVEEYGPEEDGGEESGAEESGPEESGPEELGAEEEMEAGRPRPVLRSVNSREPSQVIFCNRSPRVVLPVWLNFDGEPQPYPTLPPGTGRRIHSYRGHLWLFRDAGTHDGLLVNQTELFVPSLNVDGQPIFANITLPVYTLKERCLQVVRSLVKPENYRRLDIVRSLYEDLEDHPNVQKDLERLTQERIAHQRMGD

[6] = molecular target: T2, von Hippel-Lindau disease tumor suppressor/Tyrosine-protein kinase ABL1/Breakpoint cluster region protein; assay: Protac activity against VHL/BCR-ABL in human K562 cells assessed as induction of BCR-ABL degradation pre-treated with 2.5 uM proteasome inhibitor MG132 for 2 hrs followed by compound addition at 100 nM and further incubated for 8 hrs by Western blot analysis; type: cell-based
[7] = molecular target: T2, von Hippel-Lindau disease tumor suppressor/Tyrosine-protein kinase ABL1/Breakpoint cluster region protein; assay: Induction of ternary complex formation between VHL and BCR-ABL (unknown origin) expressed in HEK293 cells expressing N-terminal BCR-ABL LgBit fusion protein and N-terminal SmBit-VHL fusion protein pre-treated with 10 uM dasatinib for 2 hrs followed by compound addition at 1 uM and further incubated for 1 hr by NanoBit technology based luciferase complementation assay; type: cell-based
[8] = molecular target: Tyrosine-protein kinase ABL1 (Homo sapiens) (UniProt P00519); assay: Binding affinity to human phosphorylated ABL1 (S229 to K512 residues) expressed in mammalian expression system assessed as residual binding level at 10 uM by Kinomescan method relative to control
Tyrosine-protein kinase ABL1 (Homo sapiens), sequence (P00519 whole entry, the tested form may be a part): as the sequence (P00519 whole entry, looked up) above

[9] = molecular target: Tyrosine-protein kinase ABL1 (Homo sapiens) (UniProt P00519); assay: Binding affinity to human non-phosphorylated ABL1 (S229 to K512 residues) expressed in mammalian expression system assessed as residual binding level at 10 uM by Kinomescan method relative to control
[10] = Permeability in human Caco2 cells at 10 uM incubated for 120 mins by LC-MS/MS analysis; type: ADME, cell-based; settings: caco-2, 2 h
[11] = molecular target: T2, von Hippel-Lindau disease tumor suppressor/Tyrosine-protein kinase ABL1/Breakpoint cluster region protein; assay: Induction of ternary complex formation between VHL and BCR-ABL (unknown origin) expressed in HEK293 cells expressing N-terminal BCR-ABL LgBit fusion protein and N-terminal SmBit-VHL fusion protein incubated for 1 hr by NanoBit technology based luciferase complementation assay; type: cell-based
[12] = molecular target: von Hippel-Lindau disease tumor suppressor/Tyrosine-protein kinase ABL1 (Homo sapiens) (UniProt P00519+P40337); assay: Protac activity against VHL/c-ABL in human K562 cells assessed as reduction in c-ABL protein levels at 1 to 100 nM incubated for 16 hrs by Western blot analysis; type: cell-based
von Hippel-Lindau disease tumor suppressor/Tyrosine-protein kinase ABL1 (Homo sapiens), sequence (P00519 whole entry, looked up): as above
von Hippel-Lindau disease tumor suppressor/Tyrosine-protein kinase ABL1 (Homo sapiens), sequence (P40337 whole entry, looked up): as the sequence (P40337 whole entry, looked up) above

[13] = molecular target: von Hippel-Lindau disease tumor suppressor/Platelet-derived growth factor receptor beta (Homo sapiens) (UniProt P09619+P40337); assay: Protac activity against VHL/PDGFRbeta in human K562 cells assessed as reduction in PDGFRbeta protein levels at 1 to 100 nM incubated for 16 hrs by Western blot analysis; type: cell-based
von Hippel-Lindau disease tumor suppressor/Platelet-derived growth factor receptor beta (Homo sapiens), sequence (P09619 33-1106 limits assumed): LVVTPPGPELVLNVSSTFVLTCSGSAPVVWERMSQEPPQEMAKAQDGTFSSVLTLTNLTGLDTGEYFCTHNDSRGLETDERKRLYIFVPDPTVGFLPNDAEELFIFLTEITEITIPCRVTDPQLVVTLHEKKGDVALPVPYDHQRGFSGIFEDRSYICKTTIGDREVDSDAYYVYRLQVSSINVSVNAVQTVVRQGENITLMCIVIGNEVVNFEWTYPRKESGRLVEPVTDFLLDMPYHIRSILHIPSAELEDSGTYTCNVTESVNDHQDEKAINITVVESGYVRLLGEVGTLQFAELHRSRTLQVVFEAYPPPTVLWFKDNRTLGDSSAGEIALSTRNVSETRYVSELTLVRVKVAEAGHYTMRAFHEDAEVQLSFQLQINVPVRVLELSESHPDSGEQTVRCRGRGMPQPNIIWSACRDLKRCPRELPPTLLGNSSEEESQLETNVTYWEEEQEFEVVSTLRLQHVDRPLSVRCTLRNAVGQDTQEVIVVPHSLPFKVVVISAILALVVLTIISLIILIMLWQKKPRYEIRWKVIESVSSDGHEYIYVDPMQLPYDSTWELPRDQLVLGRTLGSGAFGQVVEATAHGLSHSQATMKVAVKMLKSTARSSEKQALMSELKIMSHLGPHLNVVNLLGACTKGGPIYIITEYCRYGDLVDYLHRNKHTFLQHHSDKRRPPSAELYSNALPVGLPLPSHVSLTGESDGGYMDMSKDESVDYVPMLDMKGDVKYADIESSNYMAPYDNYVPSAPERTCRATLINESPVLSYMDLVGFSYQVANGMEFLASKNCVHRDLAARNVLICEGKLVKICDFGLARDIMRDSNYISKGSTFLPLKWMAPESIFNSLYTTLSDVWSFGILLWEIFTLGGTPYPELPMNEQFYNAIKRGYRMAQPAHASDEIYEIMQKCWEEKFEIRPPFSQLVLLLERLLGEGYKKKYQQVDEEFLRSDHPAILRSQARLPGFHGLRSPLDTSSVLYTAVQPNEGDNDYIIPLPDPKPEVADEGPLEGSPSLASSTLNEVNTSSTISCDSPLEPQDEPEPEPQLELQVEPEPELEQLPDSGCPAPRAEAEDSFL
von Hippel-Lindau disease tumor suppressor/Platelet-derived growth factor receptor beta (Homo sapiens), sequence (P40337 whole entry partner): as the sequence (P40337 whole entry, looked up) above

[14] = molecular target: von Hippel-Lindau disease tumor suppressor/Tyrosine-protein kinase Lck (Homo sapiens) (UniProt P06239+P40337); assay: Protac activity against VHL/LCK in human K562 cells assessed as reduction in Lck protein levels at 1 to 100 nM incubated for 16 hrs by Western blot analysis; type: cell-based
von Hippel-Lindau disease tumor suppressor/Tyrosine-protein kinase Lck (Homo sapiens), sequence (P06239 whole entry, looked up): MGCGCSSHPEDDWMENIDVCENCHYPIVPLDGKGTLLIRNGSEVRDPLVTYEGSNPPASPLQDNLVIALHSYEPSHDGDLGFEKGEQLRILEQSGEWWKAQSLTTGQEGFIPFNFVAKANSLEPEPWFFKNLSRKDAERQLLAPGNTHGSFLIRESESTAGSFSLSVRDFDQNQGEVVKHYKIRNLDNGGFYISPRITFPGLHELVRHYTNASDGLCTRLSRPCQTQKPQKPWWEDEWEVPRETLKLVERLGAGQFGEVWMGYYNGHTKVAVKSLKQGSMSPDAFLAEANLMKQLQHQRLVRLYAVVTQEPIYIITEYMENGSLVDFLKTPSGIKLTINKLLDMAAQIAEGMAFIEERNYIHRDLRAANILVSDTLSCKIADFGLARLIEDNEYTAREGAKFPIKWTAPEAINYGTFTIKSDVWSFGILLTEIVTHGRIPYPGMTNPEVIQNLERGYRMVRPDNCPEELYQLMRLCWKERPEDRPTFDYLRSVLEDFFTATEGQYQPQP
von Hippel-Lindau disease tumor suppressor/Tyrosine-protein kinase Lck (Homo sapiens), sequence (P40337 whole entry, looked up): as the sequence (P40337 whole entry, looked up) above

[15] = tested on: K562; assay: Antitumor activity against luciferse expressing human K562 cells xenografted in NOD/SCID mouse assessed as attenuation of tumor progression at 5 to 15 mg/kg, ip QD for 12 days by serial volumetric analysis; type: functional, organism-based
[16] = Toxicity in NOD/SCID mouse xenografted with luciferse expressing human K562 cells assessed as effect on body weight at 5 to 15 mg/kg, ip QD for 12 days; type: organism-based; settings: in vivo, 288 h
[17] = tested on: Mus musculus; assay: Inhibition of BCR-ABL phosphorylation in NOD/SCID mouse xenografted with luciferse expressing human K562 cells at 5 to 15 mg/kg, ip QD for 4 days by Western blotting analysis; type: functional, organism-based
[18] = tested on: von Hippel-Lindau disease tumor suppressor/Tyrosine-protein kinase ABL1/Breakpoint cluster region protein (Homo sapiens), P00519+P11274+P40337 [G250E]; assay: Protac activity against VHL/BCR-ABL G250E mutant (unknown origin) expressed in human U937 cells assessed as induction of BCR-ABL degradation incubated for 16 hrs by Western blot analysis; type: cell-based
[19] = tested on: von Hippel-Lindau disease tumor suppressor/Tyrosine-protein kinase ABL1/Breakpoint cluster region protein (Homo sapiens), P00519+P11274+P40337 [V299L]; assay: Protac activity against VHL/BCR-ABL V299L mutant (unknown origin) expressed in human U937 cells assessed as induction of BCR-ABL degradation incubated for 16 hrs by Western blot analysis; type: cell-based
[20] = tested on: von Hippel-Lindau disease tumor suppressor/Tyrosine-protein kinase ABL1/Breakpoint cluster region protein (Homo sapiens), P00519+P11274+P40337 [F317L]; assay: Protac activity against VHL/BCR-ABL F317L mutant (unknown origin) expressed in human U937 cells assessed as induction of BCR-ABL degradation incubated for 16 hrs by Western blot analysis; type: cell-based
[21] = tested on: von Hippel-Lindau disease tumor suppressor/Tyrosine-protein kinase ABL1/Breakpoint cluster region protein (Homo sapiens), P00519+P11274+P40337 [F317V]; assay: Protac activity against VHL/BCR-ABL F317V mutant (unknown origin) expressed in human U937 cells assessed as induction of BCR-ABL degradation incubated for 16 hrs by Western blot analysis; type: cell-based
[22] = tested on: K562; assay: Growth inhibition of human K562 cells assessed as reduction in cell density at 20 times IC50 incubated for 12 hrs followed by drug wash-out and incubation in drug-free medium up to 144 hrs by CCK8 assay; type: functional, cell-based
[23] = tested on: K562; assay: Induction of cell death in human K562 cells assessed as reduction in cell viability at 20 times IC50 incubated for 12 hrs followed by drug wash-out and incubation in drug-free medium up to 144 hrs by CCK8 assay; type: functional, cell-based

T1 sequence (P00519 whole entry, looked up, the tested form may be a part): as the sequence (P00519 whole entry, looked up) above
T1 sequence (P11274 whole entry, looked up, the tested form may be a part): as the sequence (P11274 whole entry, looked up) above

In the case of `Cc1nc(Nc2ncc(C(=O)Nc3c(C)cccc3Cl)s2)cc(N2CCN(C(=O)CCCCCCC(=O)N[C@H](C(=O)N3C[C@H](O)C[C@H]3C(=O)NCc3ccc(-c4scnc4C)cc3)C(C)(C)C)CC2)n1`, the IC50 [1] is reported as 24 nM, the inhibition [2] is reported as “Active” and the inhibition [3] is reported as “Active”. The “growth inhibition (GI)” value [4] was “inactive”, the Activity [5] was “inactive” and the Activity [6] was “inactive”. The Activity [7] was “inactive”, the Activity [8] was “Active” and the Activity [9] was “Active”. The permeability [10] was “Permeable”, the Activity [11] was “Active” and the Activity [12] was “Dose-dependent effect”. The Activity [13] was “Dose-dependent effect”, the Activity [14] was “inactive” and the Activity [15] was “Dose-dependent effect”. For the same compound, the Activity [16] was “Non-Toxic”, the inhibition [17] was “Active” and the Activity [18] was “Dose-dependent effect”. For the same compound, the Activity [19] was “Dose-dependent effect”, the Activity [20] was “Dose-dependent effect” and the Activity [21] was “Dose-dependent effect”. For the same compound, the “growth inhibition (GI)” value [22] was “Active” and the Activity [23] was “Active”.
